Laboratory results from patent US9783535B2 (priority 2012, dated 2017).

What was measured:
[1] = biological target: a3b4 nAChRs (Homo sapiens, UniProt P30926+P32297); assay: Relative potency at a3b4 nAChRs, epibatidine-induced calcium response; type: cell-based
Protocol: The HEK293 (a3b4, a4b2 and a7) and SH-SY5Y cell lines (a3b4) expressing nAChRs are used. Validated assays optimized with respect to sensitivity, dynamic range, signal intensity and stability for chemical probe validation and SAR refinement are used.
Nicotinic functional assays are performed using the Molecular Devices FLIPR® Calcium 5 Assay Kit. HEK293 cells overexpressing α3β4, α4β2 or α7 (50,000 cells per well in 100 μl growth media) and are plated in clear bottom black walled 96-well microplates and incubated for 24-48 hours at 37° C., 5% CO2 until a 80-90% confluent monolayer is formed. On the day of the assay, 100 μl of Calcium 5 Dye is added to each well. Following addition of dye, cells are incubated at 25° C. for 60 minutes. Following dye loading, 50 μl of a 5× solution of reference or test compound of appropriate concentration range (0.01-30 μM), prepared in 20 mM HEPES pH 7.4 in HBSS, is added to each well. Plates are then transferred to the Molecular Devices Flexstation® which transfers 50 μL of a 5× solution (500 nM) of epibatine to each well to initiate the Ca+2 flux. Additional wells (in quadruplicate) are prepared with no added test or reference ligand for measurement of 100% flux. The RFU (relative fluorescence units) in the presence of the test or reference compounds is then expressed on the percent scale. The percent inhibition of epibatidine induced Ca^+2 flux is calculated as follows: % inhibition=100%−% RFU (relative fluorescence units). The IC50 values for reference and test compounds are obtained by fitting normalized RFU data using Graphpad Prism software.

[2] = CNS penetration across the blood brain barrier; parameters: species or system mice; conditions: mouse, in vivo
Protocol: Mice are dosed with compounds. Brain to blood ratios are determined by HPLC and LC/MS/MS analysis following oral administration of the test compounds in mice.

[3] = biological target: T1, kappa opioid receptor (kOR) (Homo sapiens, UniProt P41145); assay: Kappa opioid receptor binding; conditions: read-out: Affinity at kappa opioid receptor
T1 construct: expressed in transfected cells; host or cells: CHO or HEK293 (membranes)
T1 sequence (P41145 whole entry): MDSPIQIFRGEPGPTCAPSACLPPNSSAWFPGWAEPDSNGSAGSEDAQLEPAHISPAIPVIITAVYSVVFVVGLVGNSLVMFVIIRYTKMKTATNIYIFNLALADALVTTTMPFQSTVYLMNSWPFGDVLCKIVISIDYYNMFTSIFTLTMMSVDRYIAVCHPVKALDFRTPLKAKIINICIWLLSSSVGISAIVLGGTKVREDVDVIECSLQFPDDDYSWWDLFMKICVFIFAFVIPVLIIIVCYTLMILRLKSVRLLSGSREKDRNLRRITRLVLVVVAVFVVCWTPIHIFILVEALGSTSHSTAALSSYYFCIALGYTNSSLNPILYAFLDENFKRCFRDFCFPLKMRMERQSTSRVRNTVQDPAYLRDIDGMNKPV
Protocol: Established radioligand binding methods are used to evaluate the ability of the compounds to block reuptake of scrotonin and dopamine in membrane preparations of synaptosomes. Equilibrium binding affinity values is determined for each compound at opioid receptors (μ and κ subtypes) and biogenic amine transporters (DAT and SERT). Where possible, binding experiments utilize membranes derived from CHO or HEK293 cells engineered to overexpress the human form of the receptor or transporter of interest. Radiolabeling of opioid receptors, and biogenic amine transporters utilizes conventional radioligands, buffers and incubation conditions according to published assays.
Test compounds, reference compounds and the radioligand (Kd value) are added to binding buffer. Assays are run with test or reference compound over a range of concentration (0.0001-10 uM) in triplicate using a 96-well sample plate containing radioligands specific for the target receptor or transporter. […] Bound radioactivity is counted in a Microbeta scintillation counter. Total bound radioactivity is estimated from triplicate wells containing no test or reference compound, together with nonspecific binding and filter blanks. The average bound radioactivity in the presence of the test compounds is expressed % inhibition=100%−% radioactivity bound. […]

[4] = system: panel of over 50 receptors, transporters, ion channels, second messengers, growth factor receptors and enzymes; assay: Binding panel at physiologically relevant concentrations
Excerpt: The association between cigarette smoking and the presence and severity of suicidal behavior across major psychiatric disorders may be related to lower brain serotonin function in smokers with depression).

Sequence of a3b4 nAChRs (P32297 32-505): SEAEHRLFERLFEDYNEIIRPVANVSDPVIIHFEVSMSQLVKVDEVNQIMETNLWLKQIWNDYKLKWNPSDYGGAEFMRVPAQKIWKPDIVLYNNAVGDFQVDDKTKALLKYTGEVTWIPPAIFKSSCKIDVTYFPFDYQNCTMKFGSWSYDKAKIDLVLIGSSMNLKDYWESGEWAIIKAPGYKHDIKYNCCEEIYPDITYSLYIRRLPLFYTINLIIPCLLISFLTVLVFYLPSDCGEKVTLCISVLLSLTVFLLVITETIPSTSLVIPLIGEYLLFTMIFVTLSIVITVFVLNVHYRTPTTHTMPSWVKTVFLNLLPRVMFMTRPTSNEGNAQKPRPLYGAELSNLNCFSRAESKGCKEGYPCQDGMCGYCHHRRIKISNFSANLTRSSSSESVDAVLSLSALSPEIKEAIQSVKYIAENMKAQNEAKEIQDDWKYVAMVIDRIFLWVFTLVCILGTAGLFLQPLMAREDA
Sequence of a3b4 nAChRs (P30926 22-498): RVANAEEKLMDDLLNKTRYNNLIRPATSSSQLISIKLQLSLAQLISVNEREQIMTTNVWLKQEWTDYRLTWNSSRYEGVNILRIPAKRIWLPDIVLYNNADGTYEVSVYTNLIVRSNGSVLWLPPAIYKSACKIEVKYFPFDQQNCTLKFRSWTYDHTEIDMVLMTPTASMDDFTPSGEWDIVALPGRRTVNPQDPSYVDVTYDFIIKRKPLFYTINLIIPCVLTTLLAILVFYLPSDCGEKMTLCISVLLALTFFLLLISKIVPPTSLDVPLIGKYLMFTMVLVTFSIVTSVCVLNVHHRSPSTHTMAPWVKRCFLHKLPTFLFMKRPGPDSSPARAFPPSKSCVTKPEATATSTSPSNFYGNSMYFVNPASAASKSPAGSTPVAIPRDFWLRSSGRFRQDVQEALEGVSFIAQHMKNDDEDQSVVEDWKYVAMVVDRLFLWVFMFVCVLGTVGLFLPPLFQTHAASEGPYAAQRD

Compound | IC50 of the reference 18-MC behind the ratio ([1]; a3b4 nAChRs, bracketed value in Table 4) | Ratio from 18-MC ([1]; relative potency at a3b4 nAChRs, 18-MC = 1) | Crossing of the BBB and brain concentration [2] | Ki [3] | Targets bound in the panel [4] | Potency as inhibitor of the epibatidine-induced calcium response compared with 18-MC and noribogaine ([1]; a3b4 nAChRs)
COCC[C@H]1CC2CN3CCc4c([nH]c5ccccc45)[C@](C(=O)OC)(C2)[C@H]13 [Compound 18-MC, 18-methoxycoronaridine] | 4 µM | 1 | cross the BBB and reach micromolar concentrations in brain |  |  | 
CC[C@H]1CC2C[C@H]3c4[nH]c5ccc(O)cc5c4CCN(C2)C13 [Noribogaine, 12-hydroxyibogamine] |  |  | cross the BBB and reach micromolar concentrations in brain | 1000 nM | only bound to SERT, DAT, mu and kappa opioid receptors | 
Ibogaine |  |  |  |  |  | more potent inhibitors than 18-MC (18-methoxycoronaridine) and noribogaine
